Experimental data from patent US4330529A, “Antibacterial composition” (Fujisawa Pharmaceutical Co., Ltd., priority 1979, dated 1982).
Where two headings read alike, the source gives them in different places.

Assays:
Assay type in all cases: cell-based
[1] = system: Staphylococcus epidermidis 1601-1; assay: MIC and FIC, Nutrient agar (Tests 2, 3); conditions: 16011, S. epidermidis 1601-1, 20 h
Method: (§1) After the incubation was carried out at 37° C. for 20 hours, MIC values were determined.

[2] = system: Klebsiella pneumoniae NCTC 418; assay: MIC and FIC, Nutrient agar (Tests 2, 3); conditions: NCTC418, K. pneumoniae NCTC 418, 20 h
Method: as §1

[3] = system: Serratia marcescens 1421-4; assay: MIC and FIC, Nutrient agar (Tests 2, 3)
[4] = system: Enterobacter aerogenes 1402-10; assay: MIC and FIC, Nutrient agar (Tests 2, 3); conditions: Klebsiella aerogenes, 140210; E. aerogenes 1402-10; 20 h; read-out: MIC
[5] = system: Enterobacter cloacae 1401-4; assay: MIC and FIC, Nutrient agar (Tests 2, 3); conditions: E. cloacae 1401-4
[6] = system: Proteus morganii 1433-2; assay: MIC and FIC, Nutrient agar (Tests 2, 3); conditions: Morganella morganii, 14332; P. morganii 1433-2; 20 h
Method: as §1

[7] = system: Escherichia coli 1341-18R^+; assay: MIC and FIC, Nutrient agar (Test 3); conditions: 20 h
[8] = system: Proteus rettgeri 1434-3; assay: MIC and FIC, Nutrient agar (Test 3); conditions: Providencia rettgeri, 14343; P. rettgeri 1434-3; 20 h
Method: as §1
(§2) FIC values and FIC Index were calculated in substantially the same manner as described in Test 1.

[9] = system: Pseudomonas aeruginosa 1101-76; assay: MIC and FIC, Nutrient agar (Test 3); conditions: Pseudomonas aeruginosa, 110176; P. aeruginosa 1101-76; 20 h; read-out: MIC
[10] = system: Citrobacter freundii 35; assay: MIC and FIC, Nutrient agar (Tests 6, 7, 9); conditions: Citrobacter freundii; C. freundii 35; 18 h; read-out: MIC
[11] = system: Proteus vulgaris 7; assay: MIC and FIC, Nutrient agar (Tests 7, 9); conditions: Proteus vulgaris; P. vulgaris 7; 18 h; read-out: MIC
[12] = system: Shigella flexneri Ia EW-8; assay: MIC and FIC, Nutrient agar (Test 2); conditions: IAEW8, S. flexneri Ia EW-8, 20 h
Method: as §1

[13] = system: Salmonella enteritidis 1891; assay: MIC and FIC, Nutrient agar (Test 2); conditions: Salmonella enterica; S. enteritidis 1891; 20 h
Method: as §1

[14] = system: Salmonella typhimurium 1406; assay: MIC and FIC, Nutrient agar (Tests 2, 3); conditions: Salmonella enterica, TYPHIMURIUM, 20 h
[15] = system: Salmonella paratyphi A-1015; assay: MIC and FIC, Nutrient agar (Test 2); conditions: Salmonella enterica; S. paratyphi A-1015; 20 h
Method: as §1, §2

[16] = system: Alcaligenes faecalis 1311-1; assay: MIC and FIC, Nutrient agar (Test 2); conditions: 13111, A. faecalis 1311-1, 20 h
Method: as §1, §2

[17] = system: Proteus mirabilis 1432-75; assay: MIC and FIC, Nutrient agar (Tests 2, 3)
[18] = system: Proteus vulgaris IAM-1025; assay: MIC and FIC, Nutrient agar (Test 2); conditions: IAM1025, P. vulgaris IAM-1025, 20 h
Method: as §1, §2

[19] = Enterobacter cloacae, 14014, 20 h, read-out: MIC
[20] = Serratia marcescens, 14214, 20 h

Cc1nnc(SCC2=C(C(=O)O)N3C(=O)[C@@H](NC(=O)Cn4cnnn4)[C@H]3SC2)s1 [B (Table 3), cefazolin]
MIC [1]: 0.39 µg/mL | MIC [2]: 1.56 µg/mL | MIC ([3]; Serratia marcescens, 14214, S. marcescens 1421-4, agar, 20 h, read-out: MIC): 400 µg/mL | MIC [4]: 12.5 µg/mL | MIC [5, 19]: ≥ 400 µg/mL | MIC [6]: 25 µg/mL | MIC [7]: 3.13 µg/mL | MIC [8]: 6.25 µg/mL | MIC [9]: ≥ 400 µg/mL | MIC [10]: 50 µg/mL | MIC [11]: 100 µg/mL

CC1(C)S[C@@H]2[C@H](NC(=O)[C@H](N)c3ccccc3)C(=O)N2[C@H]1C(=O)O [B (Table 2), ampicillin]
MIC [1]: 0.2 µg/mL | MIC [2]: 12.5 µg/mL | MIC [12]: 0.78 µg/mL | MIC [13]: 0.39 µg/mL | MIC [14]: 0.39 µg/mL | MIC [15]: 0.39 µg/mL | MIC [3, 20]: 25 µg/mL | MIC [4]: 200 µg/mL | MIC ([5]; Enterobacter cloacae, 14014, 20 h): 100 µg/mL | MIC [16]: 6.25 µg/mL | MIC ([17]; Proteus mirabilis, 143275, P. mirabilis 1432-75, 20 h, read-out: MIC): 0.39 µg/mL | MIC [18]: 0.78 µg/mL | MIC [6]: 25 µg/mL

CC1(C)S[C@@H]2[C@H](NC(=O)C(C(=O)O)c3ccsc3)C(=O)N2[C@H]1C(=O)O (stereo partly drawn) [B (Table 4), ticarcillin]
MIC [1]: 3.13 µg/mL | MIC [2]: 100 µg/mL | MIC [14]: 1.56 µg/mL | MIC [3, 20]: 25 µg/mL | MIC [5, 19]: 50 µg/mL | MIC ([17]; Proteus mirabilis, 143275, 20 h): 0.78 µg/mL
